Data reported in the supplement of paper PMC10307832.

What was measured:
Assay in all cases: relative viability (nuclei count vs DMSO), 5 days (fraction); higher = more cells survive
Imatinib + Trametinib = compound: Cc1ccc(NC(=O)c2ccc(CN3CCN(C)CC3)cc2)cc1Nc1nccc(-c2cccnc2)n1 [Imatinib] + CC(=O)Nc1cccc(-n2c(=O)n(C3CC3)c(=O)c3c(Nc4ccc(I)cc4F)n(C)c(=O)c(C)c32)c1 [Trametinib] (partner 0.02 µM)
Procedure, shortened: (§1)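 Relative viability equals treated-well nuclei counts divided by vehicle-well nuclei counts. Counts came from 4× images of lung cancer cell lines grown in 1536-well plates for 5 days after pin-tool dosing on the day after seeding. Dosing used one drug alone or a fixed anchor-drug dose plus five library-drug doses (not always all listed) in √10 steps, and values are medians of duplicate plates.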

Imatinib + Lapatinib = compound: Cc1ccc(NC(=O)c2ccc(CN3CCN(C)CC3)cc2)cc1Nc1nccc(-c2cccnc2)n1 [Imatinib] + CS(=O)(=O)CCNCc1ccc(-c2ccc3ncnc(Nc4ccc(OCc5cccc(F)c5)c(Cl)c4)c3c2)o1 [Lapatinib] (partner 2 µM)
Procedure, shortened: as §1

Imatinib + Phenformin = compound: Cc1ccc(NC(=O)c2ccc(CN3CCN(C)CC3)cc2)cc1Nc1nccc(-c2cccnc2)n1 [Imatinib] + N=C(N)NC(=N)NCCc1ccccc1 [Phenformin] (partner 250 µM)
Procedure, shortened: as §1

Imatinib + Vorinostat = compound: Cc1ccc(NC(=O)c2ccc(CN3CCN(C)CC3)cc2)cc1Nc1nccc(-c2cccnc2)n1 [Imatinib] + O=C(CCCCCCC(=O)Nc1ccccc1)NO [Vorinostat] (partner 1 µM)
Procedure, shortened: as §1

| Cell Line | relative viability (Imatinib + Trametinib; first compound 0.02 µM) | relative viability (Imatinib + Trametinib; first compound 0.06325 µM) | relative viability (Imatinib + Trametinib; first compound 0.2 µM) | relative viability (Imatinib + Trametinib; first compound 0.6325 µM) | relative viability (Imatinib + Trametinib; first compound 2 µM) | relative viability (Imatinib + Lapatinib; first compound 0.02 µM) | relative viability (Imatinib + Lapatinib; first compound 0.06325 µM) | relative viability (Imatinib + Lapatinib; first compound 0.2 µM) | relative viability (Imatinib + Lapatinib; first compound 0.6325 µM) | relative viability (Imatinib + Lapatinib; first compound 2 µM) | relative viability (Imatinib + Phenformin; first compound 0.02 µM) | relative viability (Imatinib + Phenformin; first compound 0.06325 µM) | relative viability (Imatinib + Phenformin; first compound 0.2 µM) | relative viability (Imatinib + Phenformin; first compound 0.6325 µM) | relative viability (Imatinib + Phenformin; first compound 2 µM) | relative viability (Imatinib + Vorinostat; first compound 0.02 µM) | relative viability (Imatinib + Vorinostat; first compound 0.06325 µM) | relative viability (Imatinib + Vorinostat; first compound 0.2 µM) | relative viability (Imatinib + Vorinostat; first compound 0.6325 µM) | relative viability (Imatinib + Vorinostat; first compound 2 µM) |
| --- | --- | --- | --- | --- | --- | --- | --- | --- | --- | --- | --- | --- | --- | --- | --- | --- | --- | --- | --- | --- |
| LU99A | 0.53 | 0.638 | 0.517 | 0.556 | 0.318 | 1.14 | 1.08 | 0.986 | 0.99 | 1.18 | 0.887 | 0.923 | 0.77 | 0.899 | 0.785 | 0.564 | 0.455 | 0.471 | 0.559 | 0.564 |
| LXF-289 | 0.662 |  | 0.755 | 0.636 | 0.679 | 0.974 | 0.999 | 0.96 | 0.905 | 0.873 | 0.531 | 0.491 | 0.552 | 0.51 | 0.502 | 0.782 |  | 0.798 | 0.736 | 0.783 |
| NCI-H23 | 0.389 | 0.393 | 0.376 | 0.371 | 0.379 | 1.2 | 0.959 | 1.11 |  | 1.13 | 0.863 | 0.84 | 0.768 | 0.764 | 0.731 | 0.686 | 0.669 | 0.578 | 0.453 | 0.488 |
| NCI-H322M | 0.45 | 0.48 | 0.546 | 0.535 | 0.507 | 0.613 | 0.61 | 0.656 | 0.534 | 0.63 | 0.909 | 0.839 | 0.819 | 0.679 | 0.795 | 0.889 | 0.873 | 0.928 | 0.775 | 0.876 |
| NCI-H358 | 0.14 | 0.143 | 0.129 | 0.139 | 0.121 | 0.478 |  | 0.445 | 0.448 | 0.392 | 0.317 | 0.349 | 0.418 | 0.292 | 0.335 | 0.863 | 0.83 | 0.642 | 0.692 | 0.729 |
| NCI-H460 | 0.142 | 0.102 | 0.199 | 0.125 | 0.21 | 1.41 | 0.872 | 1.36 | 1.17 | 1.09 | 0.621 | 0.555 | 0.557 | 0.443 | 0.478 | 1.4 | 0.636 | 1.09 | 0.705 | 0.735 |
| NCI-H520 | 0.775 | 0.531 | 0.669 | 0.674 | 0.8 | 1.06 |  | 1.01 | 0.82 | 0.86 | 0.695 | 0.823 | 0.545 | 0.568 | 0.497 | 0.7 |  | 0.662 | 0.922 | 0.729 |
| NCI-H596 | 0.721 | 1.06 | 0.876 | 0.693 |  | 1.17 | 1.29 | 1.13 |  | 1.03 | 0.73 | 0.663 | 0.816 | 0.693 | 0.834 | 0.648 | 0.481 | 0.59 | 0.586 | 0.623 |
| NCI-H647 | 0.512 | 0.414 | 0.563 | 0.365 | 0.458 |  | 1.11 | 1.2 | 1.17 | 1.02 | 0.518 | 0.696 | 0.611 | 0.513 | 0.461 | 0.459 | 0.888 | 0.593 | 0.549 | 0.619 |
| NCI-H650 | 0.969 | 0.833 | 0.937 | 1.04 | 0.843 | 1.02 | 1.16 | 1 | 1.11 | 0.85 | 0.505 | 0.435 | 0.516 | 0.494 | 0.425 | 0.388 | 0.597 | 0.448 | 0.466 | 0.466 |
| NCI-H661 | 0.62 | 0.419 | 0.649 | 0.586 | 0.593 | 0.434 | 0.296 | 0.546 | 0.19 | 0.481 | 0.245 | 0.255 | 0.259 | 0.263 | 0.258 | 0.823 | 0.87 | 0.845 | 0.778 | 0.74 |
| NCI-H727 | 0.334 |  | 0.411 | 0.392 | 0.411 | 0.626 | 0.637 | 0.84 | 0.769 | 0.801 | 0.653 |  | 0.876 | 0.522 | 0.522 | 1.28 |  |  | 1.14 | 1.34 |
| NCI-H1355 | 0.494 |  | 0.436 |  | 0.411 | 1.04 |  | 1.1 | 1.02 | 0.99 | 0.493 |  | 0.461 | 0.409 | 0.391 | 0.733 |  | 0.688 | 0.579 | 0.609 |
| NCI-H1395 | 1.07 |  | 1.13 | 0.999 | 0.997 | 0.956 |  |  | 0.988 | 1.19 | 0.472 | 0.4 | 0.438 | 0.471 | 0.447 | 0.687 |  | 0.67 | 0.698 | 0.594 |
| NCI-H1437 | 0.569 | 0.345 | 0.607 | 0.544 | 0.494 | 0.916 | 0.841 | 0.925 | 0.706 | 0.823 | 0.267 | 0.326 | 0.361 | 0.308 | 0.283 | 0.934 | 0.81 | 0.883 | 0.998 | 0.786 |
| NCI-H1650 | 0.579 | 0.471 | 0.404 | 0.635 | 0.559 | 0.797 | 0.489 | 0.845 | 0.816 | 0.886 | 0.499 | 0.473 | 0.329 | 0.388 | 0.385 | 0.605 | 0.527 | 0.477 | 0.441 | 0.452 |
| NCI-H1651 | 0.876 | 0.795 | 0.859 | 0.84 | 0.82 | 1.02 | 1.06 | 0.994 | 0.692 | 0.87 | 0.338 | 0.35 | 0.329 | 0.339 | 0.374 | 0.603 | 0.49 | 0.631 | 0.547 | 0.548 |
| NCI-H1666 | 0.82 | 0.855 | 0.823 | 1.09 | 0.924 | 0.679 | 0.811 | 0.565 | 0.748 | 0.844 | 0.534 | 0.613 | 0.592 | 0.663 | 0.551 | 1.04 | 0.986 | 1.06 | 1.27 | 0.946 |
| NCI-H1734 | 0.739 |  | 0.689 | 0.825 | 0.71 | 1.26 |  | 1.3 | 1.1 |  | 0.382 | 0.389 | 0.431 | 0.368 | 0.357 | 0.92 |  | 0.832 | 0.856 | 0.717 |
| NCI-H1755 | 0.793 | 0.811 | 0.839 | 0.782 | 0.725 | 1.14 | 0.994 | 1.06 | 0.997 | 1.02 | 0.643 | 0.674 | 0.596 | 0.568 | 0.536 | 0.875 | 0.835 | 0.649 | 0.742 | 0.653 |
| NCI-H1793 | 0.472 |  | 0.582 | 0.404 | 0.368 | 0.841 |  | 0.536 | 0.647 | 0.831 | 0.388 |  | 0.375 | 0.284 | 0.257 | 0.703 |  | 0.94 | 0.716 | 0.565 |
| NCI-H1915 | 0.328 |  | 0.293 | 0.304 | 0.312 | 0.974 |  | 1.04 | 0.952 |  | 0.38 |  | 0.387 | 0.377 | 0.371 | 0.613 |  | 0.516 | 0.461 | 0.471 |
| NCI-H1944 | 0.408 | 0.376 | 0.449 | 0.436 | 0.402 | 0.8 |  | 0.991 | 0.853 | 0.771 | 0.185 | 0.2 | 0.188 | 0.199 | 0.162 | 0.605 | 0.573 | 0.536 | 0.512 | 0.439 |
| NCI-H1975 | 0.364 | 0.273 | 0.375 | 0.41 | 0.326 | 1.01 | 1.04 | 1.03 | 1.03 |  | 0.446 | 0.43 | 0.407 | 0.425 | 0.357 | 0.698 | 0.741 | 0.73 | 0.686 | 0.686 |
| NCI-H1993 | 0.45 | 0.482 | 0.622 | 0.447 | 0.584 |  | 0.872 | 0.774 | 0.809 | 0.698 | 0.56 | 0.506 | 0.519 | 0.485 | 0.52 | 0.608 | 0.581 | 0.737 | 0.688 | 0.743 |
| NCI-H2009 | 0.319 | 0.214 | 0.255 | 0.296 | 0.246 | 0.974 | 0.442 | 1.05 | 0.87 | 0.939 | 0.518 |  | 0.485 | 0.445 | 0.383 | 0.805 | 0.646 | 0.554 | 0.794 | 0.758 |
| NCI-H2085 | 0.49 | 0.515 | 0.535 | 0.58 | 0.513 | 0.754 | 0.591 | 0.733 | 0.819 | 0.694 | 0.867 | 0.694 | 0.748 | 0.752 | 0.704 | 0.755 | 0.683 | 0.772 | 0.743 | 0.768 |
| NCI-H2087 | 0.179 |  | 0.221 | 0.189 |  | 1.06 | 0.654 | 1.21 | 1.05 |  | 0.478 |  | 0.478 | 0.548 | 0.535 | 0.806 |  | 0.787 | 0.716 |  |
| NCI-H2126 | 0.525 | 0.43 | 0.565 | 0.57 | 0.574 |  |  | 0.828 | 0.684 | 0.704 | 0.514 |  | 0.57 |  | 0.501 | 0.702 | 0.582 | 0.789 | 0.724 | 0.818 |
